Measurements from publication PMC5978884, “Dissection of the antimicrobial and hemolytic activity of Cap18: Generation of Cap18 derivatives with enhanced specificity” (PLoS ONE, 2018).
Where two headings read alike, the source gives them in different places. Where no end group is shown, it is not given here.

What was measured:
[1] = test system: all the tested bacterial species including Gram-positive and Gram-negative bacteria
Procedure: The minimum inhibitory concentrations (MICs) of the AMPs were measured in 96-well microtiter plates according the Clinical and Laboratory Standards Institute (CLSI, formerly National Committee for Clinical Laboratory Standards [NCCLS]). Briefly, liquid Mueller-Hinton-II medium containing increasing concentrations of AMPs is inoculated with a defined number of cells (approx. 10^5 CFUs/ml) in 96-well microtiter plates (polypropylene), whereas each plate also includes a positive growth control and a negative control (sterile control). […] After incubation, the MIC is determined by the lowest concentration showing no visible growth. All plates were incubated for 16–20 hours. The MIC of the reference antibiotics was determined by the use of Sensititre panels (Trek Diagnostic Systems Ltd, East Grinstead, UK).
To identify Cap18 variant peptides with changed species specificity, the antimicrobial screening data of Y. ruckeri, A. salmonicida, S. Typhimurium and L. lactis was compared.
In addition, three Cap18 derivatives harboring either a I13F, I13M or G26T substitution were ordered as positive controls. […] The antimicrobial activity of the highly pure peptides was determined by measuring the MIC value of each derivative against the four test strains Y. ruckeri, A. salmonicida, S.Typhimurium and L. lactis (Table 6). […] In addition to the additional screening strains, a wider range of relevant pathogens including Gram-positive and Gram-negative bacteria was analyzed for targeted antimicrobial activity.

[2] = test system: Salmonella enterica serovar Typhimurium LT2; assay: microbe, parasite or virus in culture; assay type: cell-based; details: LT2
Procedure: (§1) All strains were grown in Mueller-Hinton-II medium, except L. monocytogenes which was grown in BHI medium and L. lactis which was grown in MRS medium. Incubation took place aerobically at 37°C, except for Y. ruckeri and A. salmonicida, which were grown aerobically at RT (20 °C), and L. lactis grown aerobically at 30°C. All plates were incubated for 16–21 hours.
(§2) The minimum inhibitory concentrations (MICs) of the AMPs were measured in 96-well microtiter plates according the Clinical and Laboratory Standards Institute (CLSI, formerly National Committee for Clinical Laboratory Standards [NCCLS]). Briefly, liquid Mueller-Hinton-II medium containing increasing concentrations of AMPs is inoculated with a defined number of cells (approx. 10^5 CFUs/ml) in 96-well microtiter plates (polypropylene), whereas each plate also includes a positive growth control and a negative control (sterile control). The range of peptide concentrations analyzed was 0.125–64 μg/ml for the high purity peptides and 0.06–32 μg/ml for peptides of the variant library. After incubation, the MIC is determined by the lowest concentration showing no visible growth. All plates were incubated for 16–20 hours. The MIC of the reference antibiotics was determined by the use of Sensititre panels (Trek Diagnostic Systems Ltd, East Grinstead, UK).

[3] = test system: Aeromonas salmonicida ATCC33658; assay: microbe, parasite or virus in culture; assay type: cell-based; details: ATCC33658
Procedure: as §1, §2

[4] = test system: Lactococcus lactis IL1403; assay type: cell-based
Procedure: as §1, §2

[5] = test system: Pseudomonas aeruginosa ATCC27853; assay type: cell-based
Procedure: as §1, §2

[6] = test system: Listeria monocytogenes N22-2; assay type: cell-based
Procedure: as §1, §2

[7] = test system: Escherichia coli ATCC25922; assay type: cell-based
Procedure: as §1, §2

[8] = test system: Enterococcus faecalis ATCC29212; assay type: cell-based
Procedure: as §1, §2

[9] = test system: Yersinia ruckeri 392/2003; assay: microbe, parasite or virus in culture; assay type: cell-based
Procedure: as §1, §2

[10] = previous study; cited from earlier work
Excerpt: It must be expected that AMPs during evolution have evolved towards a high general activity against multiple microorganisms. In this study, we address the issues of species specificity, hemolytic activity and antimicrobial activity of Cap18, a α-helical peptide of the cathelicidin family.

[11] = test system: horse erythrocytes; design: method as in PMID 26656394; details: cited from earlier work

Sequence	MIC against all the tested bacterial species [1]	MIC A. salmonicida ATCC33658 [3]	MIC L. lactis IL1403 [4]	MIC P. aeruginosa ATCC27853 [5]	MIC L. monocytogenes N22-2 [6]	MIC E. faecalis ATCC29212 [8]	MIC Y. ruckeri 392/2003 [9]	MIC S. Typhimurium LT2 [2]	MIC E. coli ATCC25922 [7]	Thermostability [10]	Hemolytic activity in vitro [11]	MIC S. Typhimurium [2]	MIC Y. ruckeri [9]	MIC Y. ruckeri 392/2003 ([9]; high purity peptides, Mueller-Hinton-II, RT (20 °C), 0.125–64 μg/ml, triplicates)	MIC A. salmonicida [3]	MIC L. lactis [4]
GLRKRLRKFRNKIKEKPKKIGQKIQGLLPKLAPRTDY [Peptide 18]	≥ 32 µg/mL	≥64 µg/mL	≥64 µg/mL	≥64 µg/mL	≥64 µg/mL	≥64 µg/mL		≥64 µg/mL	≥64 µg/mL							
GLRKRLRKFRNKDKEKLKKIGQKIQGLLPKLAPRTDY [Peptide 3]	≥ 32 µg/mL	≥64 µg/mL	≥64 µg/mL	≥64 µg/mL	32 to 64 µg/mL	≥64 µg/mL	≥64 µg/mL	≥64 µg/mL	≥64 µg/mL							
GLRKRLRKFRNKIKEKLKKIGQKIQGLLPKLAPRTDY [Cap18]		4 µg/mL	1 to 2 µg/mL	4 to 8 µg/mL	4 µg/mL	8 µg/mL		4 to 8 µg/mL	4 to 8 µg/mL	highly thermostable	no hemolytic activity	2 to 4 µg/mL	2 µg/mL	2 to 4 µg/mL	2 µg/mL	2 to 4 µg/mL

Second part, led by results:

MIC against all the tested bacterial species [1]	MIC A. salmonicida ATCC33658 [3]	MIC L. lactis IL1403 [4]	MIC P. aeruginosa ATCC27853 [5]	MIC L. monocytogenes N22-2 [6]	MIC E. faecalis ATCC29212 [8]	MIC Y. ruckeri 392/2003 [9]	Sequence	MIC S. Typhimurium LT2 [2]	MIC E. coli ATCC25922 [7]	Thermostability [10]	Hemolytic activity in vitro [11]	MIC S. Typhimurium [2]	MIC Y. ruckeri [9]	MIC Y. ruckeri 392/2003 ([9]; high purity peptides, Mueller-Hinton-II, RT (20 °C), 0.125–64 μg/ml, triplicates)	MIC A. salmonicida [3]	MIC L. lactis [4]
≥ 32 µg/mL	≥64 µg/mL	≥64 µg/mL	≥64 µg/mL	≥64 µg/mL	≥64 µg/mL		GLRKRLRKFRNKIKEKDKKIGQKIQGLLPKLAPRTDY [Peptide 16]									
≥ 32 µg/mL	≥64 µg/mL	≥64 µg/mL	≥64 µg/mL	≥64 µg/mL	≥64 µg/mL	≥64 µg/mL	GLRKRLRKFRNKIKEKLKKIGQKDQGLLPKLAPRTDY [Peptide 26]	≥64 µg/mL	≥64 µg/mL							
